# Data reported in article PMC4251536 (Journal of Natural Products, 2014).
# What was measured:
# [1] = system: voltage-gated sodium channels (VGSCs); type: cell-based, mouse; settings: veratridine-stimulated Na+ influx, murine cerebrocortical neurons
# [2] = system: sodium ion channel in Neuro-2a cells; settings: read-out: IC50, sodium ion channel blocking activity (veratridine-induced sodium influx), natural product; cited from earlier work
# [3] = system: human lung adenocarcinoma cells; settings: cited from earlier work
Structure (SMILES),fold more potent than the other analogues tested [1],IC50 [2],cytotoxicity (in words) [3]
"C[C@@H]1CCCC(=O)N(C)/C=C/CC[C@@H](C)C(=O)O[C@@H](C(C)(C)C)C1 [compound 1, (−)-palmyrolide A]",3–9 fold,5.2 µM,no appreciable cytotoxicity
"C[C@H]1CCCC(=O)N(C)/C=C/CC[C@H](C)C(=O)O[C@H](C(C)(C)C)C1 [compound 3, (+)-palmyrolide A]",3–9 fold,–,–
"C[C@@H]1CCCC(=O)N(C)CCCC[C@@H](C)C(=O)O[C@@H](C(C)(C)C)C1 [compound 5, 17,18-Dihydropalmyrolide A]",3–9 fold,–,–
